{"source": "ChEMBL document CHEMBL1124336", "about": "“5-Isoquinolinesulfonamide derivatives. 2. Synthesis and vasodilatory activity of N-(2-aminoethyl)-5-isoquinolinesulfonamide derivatives” (1989)", "key": {"[1]": {"system": "Canis familiaris", "experiment": "Increasing effect on vertebral blood flow in anesthetized dogs compared to the effect of trapidil", "type": "functional, Canis lupus familiaris"}, "[2]": {"system": "Canis familiaris", "experiment": "Increasing effect on femoral blood flow in anesthetized dogs compared to the effect of trapidil", "type": "functional, Canis lupus familiaris, Artery"}, "[3]": {"system": "Canis familiaris", "experiment": "Compound was tested for its hemodynamic effect for percentage change in coronary blood flow in anesthetized Dogs", "type": "functional, Canis lupus familiaris, Artery"}, "[4]": {"system": "Canis familiaris", "experiment": "Compound was tested for its hemodynamic effect for percentage change in heart rate in anesthetized Dogs", "type": "functional, Canis lupus familiaris"}, "[5]": {"system": "Canis familiaris", "experiment": "Compound was tested for its hemodynamic effect for percentage change in mean blood pressure in anesthetized Dogs", "type": "functional, Canis lupus familiaris"}, "[6]": {"system": "Canis familiaris", "experiment": "Compound was tested for its hemodynamic effect for percentage change in vertebral blood flow in anesthetized dogs", "type": "functional, Canis lupus familiaris"}}}
{"smiles": "Cl.NNS(=O)(=O)c1cccc2cnccc12", "values": [{"measurement": "Vertebral blood flow", "setting": "[1]", "result": ">100"}]}
{"smiles": "CN(CCNS(=O)(=O)c1cccc2cnccc12)C1CCCCC1", "values": [{"measurement": "Femoral blood flow", "setting": "[2]", "result": 0.83}, {"measurement": "Vertebral blood flow", "setting": "[1]", "result": 1.7}]}
{"smiles": "O=[N+]([O-])c1ccc(CNCCNS(=O)(=O)c2cccc3cnccc23)cc1", "values": [{"measurement": "Femoral blood flow", "setting": "[2]", "result": 2.5}, {"measurement": "Vertebral blood flow", "setting": "[1]", "result": 1.5}]}
{"smiles": "CCCCCCCCN(CCN)S(=O)(=O)c1cccc2cnccc12", "values": [{"measurement": "Vertebral blood flow", "setting": "[1]", "result": 0.92}]}
{"smiles": "CCCCCCN(CCN)S(=O)(=O)c1cccc2cnccc12", "values": [{"measurement": "Change", "setting": "[3]", "result": 53.6, "unit": "%"}, {"measurement": "Change", "setting": "[4]", "result": 2.8, "unit": "%"}, {"measurement": "Change", "setting": "[5]", "result": -11.4, "unit": "%"}, {"measurement": "Change", "setting": "[6]", "result": 91.4, "unit": "%"}, {"measurement": "Vertebral blood flow", "setting": "[1]", "result": 0.12}]}
{"smiles": "CCCCCCN(CCCCCC)CCNS(=O)(=O)c1cccc2cnccc12", "values": [{"measurement": "Femoral blood flow", "setting": "[2]", "result": 1.2}, {"measurement": "Vertebral blood flow", "setting": "[1]", "result": 0.48}]}
{"smiles": "O=S(=O)(NCCNC1CCCCC1)c1cccc2cnccc12", "values": [{"measurement": "Vertebral blood flow", "setting": "[1]", "result": 1.4}]}
{"smiles": "CN(C)CCNS(=O)(=O)c1cccc2cnccc12", "values": [{"measurement": "Vertebral blood flow", "setting": "[1]", "result": 1.4}]}
{"smiles": "CCCCCNCCNS(=O)(=O)c1cccc2cnccc12", "values": [{"measurement": "Femoral blood flow", "setting": "[2]", "result": 1}, {"measurement": "Vertebral blood flow", "setting": "[1]", "result": 2.4}]}
{"smiles": "NCCCNS(=O)(=O)c1cccc2cnccc12", "values": [{"measurement": "Femoral blood flow", "setting": "[2]", "result": 3.6}, {"measurement": "Vertebral blood flow", "setting": "[1]", "result": 5.1}]}
{"smiles": "CCCCCCCCCCNCCNS(=O)(=O)c1cccc2cnccc12", "values": [{"measurement": "Vertebral blood flow", "setting": "[1]", "result": 0.49}]}
{"smiles": "NCCCCCCNS(=O)(=O)c1cccc2cnccc12", "values": [{"measurement": "Femoral blood flow", "setting": "[2]", "result": 2.4}, {"measurement": "Vertebral blood flow", "setting": "[1]", "result": 1.4}]}
{"smiles": "CN(CCN)S(=O)(=O)c1cccc2cnccc12", "values": [{"measurement": "Vertebral blood flow", "setting": "[1]", "result": 1.6}]}
{"smiles": "O=S(=O)(NCCNCc1ccccc1Cl)c1cccc2cnccc12", "values": [{"measurement": "Femoral blood flow", "setting": "[2]", "result": 2.6}, {"measurement": "Vertebral blood flow", "setting": "[1]", "result": 1.5}]}
{"smiles": "O=S(=O)(NCCNCc1ccccc1)c1cccc2cnccc12", "values": [{"measurement": "Vertebral blood flow", "setting": "[1]", "result": 0.57}]}
{"smiles": "CCCCCCNCCNS(=O)(=O)c1cccc2cnccc12", "values": [{"measurement": "Change", "setting": "[3]", "result": 45.7, "unit": "%"}, {"measurement": "Change", "setting": "[4]", "result": 3.9, "unit": "%"}, {"measurement": "Change", "setting": "[5]", "result": -16.8, "unit": "%"}, {"measurement": "Change", "setting": "[6]", "result": 93.7, "unit": "%"}, {"measurement": "Femoral blood flow", "setting": "[2]", "result": 0.23}, {"measurement": "Vertebral blood flow", "setting": "[1]", "result": 0.17}]}
{"smiles": "O=S(=O)(c1cccc2cnccc12)N(CCNCc1ccccc1)Cc1ccccc1", "values": [{"measurement": "Vertebral blood flow", "setting": "[1]", "result": 1.8}]}
{"smiles": "CNCCNS(=O)(=O)c1cccc2cnccc12", "values": [{"measurement": "Femoral blood flow", "setting": "[2]", "result": 1.7}, {"measurement": "Vertebral blood flow", "setting": "[1]", "result": 3.7}]}
{"smiles": "CCNCCN(CC)S(=O)(=O)c1cccc2cnccc12", "values": [{"measurement": "Femoral blood flow", "setting": "[2]", "result": 1.1}, {"measurement": "Vertebral blood flow", "setting": "[1]", "result": 0.78}]}
{"smiles": "COc1ccc(CNCCNS(=O)(=O)c2cccc3cnccc23)cc1OC", "values": [{"measurement": "Femoral blood flow", "setting": "[2]", "result": 3.7}, {"measurement": "Vertebral blood flow", "setting": "[1]", "result": 4.3}]}
{"smiles": "CC(C)N(CCN)S(=O)(=O)c1cccc2cnccc12", "values": [{"measurement": "Vertebral blood flow", "setting": "[1]", "result": 3.3}]}
{"smiles": "O=S(=O)(NCCNCc1cccc(Cl)c1)c1cccc2cnccc12", "values": [{"measurement": "Femoral blood flow", "setting": "[2]", "result": 0.83}, {"measurement": "Vertebral blood flow", "setting": "[1]", "result": 0.26}]}
{"smiles": "CC(C)N(CCNS(=O)(=O)c1cccc2cnccc12)C(C)C", "values": [{"measurement": "Vertebral blood flow", "setting": "[1]", "result": 2.7}]}
{"smiles": "CCCCNCCNS(=O)(=O)c1cccc2cnccc12", "values": [{"measurement": "Femoral blood flow", "setting": "[2]", "result": 1.3}, {"measurement": "Vertebral blood flow", "setting": "[1]", "result": 4.6}]}
{"smiles": "COc1ccc(CNCCNS(=O)(=O)c2cccc3cnccc23)cc1", "values": [{"measurement": "Femoral blood flow", "setting": "[2]", "result": 0.43}, {"measurement": "Vertebral blood flow", "setting": "[1]", "result": 0.38}]}
{"smiles": "CCCCCCCCNCCNS(=O)(=O)c1cccc2cnccc12", "values": [{"measurement": "Vertebral blood flow", "setting": "[1]", "result": 0.53}]}
{"smiles": "CCCNCCNS(=O)(=O)c1cccc2cnccc12", "values": [{"measurement": "Femoral blood flow", "setting": "[2]", "result": 1.6}, {"measurement": "Vertebral blood flow", "setting": "[1]", "result": 2.7}]}
{"smiles": "O=S(=O)(NCCNCCc1ccccc1)c1cccc2cnccc12", "values": [{"measurement": "Femoral blood flow", "setting": "[2]", "result": 0.32}, {"measurement": "Vertebral blood flow", "setting": "[1]", "result": 0.31}]}
{"smiles": "NCCNS(=O)(=O)c1cccc2cnccc12", "values": [{"measurement": "Femoral blood flow", "setting": "[2]", "result": 2}, {"measurement": "Vertebral blood flow", "setting": "[1]", "result": 1.8}]}
{"smiles": "NCCCCNS(=O)(=O)c1cccc2cnccc12", "values": [{"measurement": "Femoral blood flow", "setting": "[2]", "result": 2.7}, {"measurement": "Vertebral blood flow", "setting": "[1]", "result": 4.2}]}
{"smiles": "CCCCN(CCN)S(=O)(=O)c1cccc2cnccc12", "values": [{"measurement": "Vertebral blood flow", "setting": "[1]", "result": 0.27}]}
{"smiles": "NCCN(Cc1ccccc1)S(=O)(=O)c1cccc2cnccc12", "values": [{"measurement": "Vertebral blood flow", "setting": "[1]", "result": 1.92}]}
{"smiles": "CCCCCCN(CCC)CCNS(=O)(=O)c1cccc2cnccc12", "values": [{"measurement": "Femoral blood flow", "setting": "[2]", "result": 1.9}, {"measurement": "Vertebral blood flow", "setting": "[1]", "result": 1.7}]}
{"smiles": "CNCCN(C)S(=O)(=O)c1cccc2cnccc12", "values": [{"measurement": "Femoral blood flow", "setting": "[2]", "result": 1.5}, {"measurement": "Vertebral blood flow", "setting": "[1]", "result": 1.3}]}
{"smiles": "CCNCCNS(=O)(=O)c1cccc2cnccc12", "values": [{"measurement": "Femoral blood flow", "setting": "[2]", "result": 2.7}, {"measurement": "Vertebral blood flow", "setting": "[1]", "result": 4.2}]}
{"smiles": "CCN(CCN)S(=O)(=O)c1cccc2cnccc12", "values": [{"measurement": "Vertebral blood flow", "setting": "[1]", "result": 1.3}]}
{"smiles": "O=S(=O)(NCCNCc1ccc(Cl)cc1)c1cccc2cnccc12", "values": [{"measurement": "Femoral blood flow", "setting": "[2]", "result": 1}, {"measurement": "Vertebral blood flow", "setting": "[1]", "result": 0.25}]}
{"smiles": "COc1ccc([C@@H]2Sc3ccccc3N(CCN(C)C)C(=O)[C@@H]2OC(C)=O)cc1", "note": "[DILTIAZEM]", "values": [{"measurement": "Change", "setting": "[3]", "result": 91.3, "unit": "%"}, {"measurement": "Change", "setting": "[4]", "result": -8, "unit": "%"}, {"measurement": "Change", "setting": "[5]", "result": -28.9, "unit": "%"}, {"measurement": "Change", "setting": "[6]", "result": 180, "unit": "%"}, {"measurement": "Femoral blood flow", "setting": "[2]", "result": 0.21}, {"measurement": "Vertebral blood flow", "setting": "[1]", "result": 0.15}]}
